The values that follow come from patent publication US8859575B2, “Benzoimidazol-2-yl pyrimidine modulators of the histamine h4 receptor” (Janssen Pharmaceutica NV, priority 2013, dated 2014).

Entries after “also recorded” stand apart in the source; their conditions may differ.

The target in one data set is H4 receptor (Homo sapiens, UniProt Q9H3N8). Particulars: as described in U.S. Pat. No. 7,507,737, 8,343,989 and others; cited from earlier work.
The nature of data set [1]: Hygroscopicity and physical (solid form) stability. The data set is classed as physicochemical. Conditions: for conversion to another solid form: aqueous solution, atmosphere, dehydration or recrystallization; for physical stability: ambient conditions.
The nature of data set [2]: Aqueous solubility at room temperature. The data set is classed as physicochemical.

Chain of H4 receptor (Q9H3N8 whole entry): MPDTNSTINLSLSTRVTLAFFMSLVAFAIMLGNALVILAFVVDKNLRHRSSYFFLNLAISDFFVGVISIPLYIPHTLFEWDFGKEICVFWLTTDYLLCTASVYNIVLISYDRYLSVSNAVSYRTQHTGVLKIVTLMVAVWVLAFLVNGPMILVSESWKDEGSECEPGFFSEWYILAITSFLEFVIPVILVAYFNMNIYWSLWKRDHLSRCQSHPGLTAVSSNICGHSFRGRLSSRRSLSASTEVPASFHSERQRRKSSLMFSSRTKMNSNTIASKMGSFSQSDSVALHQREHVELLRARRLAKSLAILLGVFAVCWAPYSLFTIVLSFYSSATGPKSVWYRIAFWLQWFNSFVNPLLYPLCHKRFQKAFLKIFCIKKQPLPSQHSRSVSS

Turning to `Cc1cc(C)c2nc(-c3cnc(NCCCC4CCN(C)CC4)nc3C)[nH]c2c1` [Compound 2, [5-(4,6-Dimethyl-1H-benzoimidazol-2-yl)-4-methyl-pyrimidin-2-yl]-[3-(1-methyl-piperidin-4-yl)-propyl]-amine], at H4 receptor, the “H4 receptor modulator activity” value is reported as “has H4 receptor modulator activity”.
With `Cc1cc(C)c2nc(-c3cnc(NCCCC4CCN(C)CC4)nc3C)[nH]c2c1.O=C(O)C(O)C(O)C(=O)O` [Compound 2.1, 5-(4,6-dimethyl-1H-benzimidazol-2-yl)-4-methyl-N-[3-(1-methyl-4-piperidinyl)-propyl]-2-pyrimidinamine 2,3-dihydroxybutanedioate (1:0.5)], in data set [1], the hygroscopicity entry was “hygroscopic”, the “relative humidity above which it converts to Compound 3” value was “above 70 % relative humidity” and the “conversion to another solid form” value was “forms the tetrahydrate Compound 3 in aqueous solution”. In addition, in data set [2], the aqueous solubility result is “about 1.1 g/ml”.
Consider `Cc1cc(C)c2nc(-c3cnc(NCCCC4CCN(C)CC4)nc3C)[nH]c2c1` [Compound 2.2, 5-(4,6-dimethyl-1H-benzimidazol-2-yl)-4-methyl-N-[3-(1-methyl-4-piperidinyl)-propyl]-2-pyrimidinamine 2,3-dihydroxybutanedioate (1:0.5)], for which, in data set [1], the hygroscopicity entry is listed as “absorbs water readily”, the physical stability entry is “physically stable only when stored in a tightly sealed vial at ambient condition” and the “conversion to another solid form” value was “converts to Compound 3 when exposed to the atmosphere”.
For the compound `Cc1cc(C)c2nc(-c3cnc(NCCCC4CCN(C)CC4)nc3C)[nH]c2c1.O=C(O)C(O)C(O)C(=O)O` [Compound 3, 5-(4,6-dimethyl-1H-benzimidazol-2-yl)-4-methyl-N-[3-(1-methyl-4-piperidinyl)-propyl]-2-pyrimidinamine 2,3-dihydroxybutanedioate tetrahydrate (1:0.5:4)], in data set [1], the physical stability result is given as “stable under ambient conditions” and the “conversion to another solid form” value is given as “converts to Compound 2.2 upon dehydration by heating or in low relative humidity; also recorded: no conversion of Compound 3 to other forms was detected”. The aqueous solubility result in data set [2] is listed as “about 4.1 mg/ml”.
